The text below walks through data of patent publication US11041000B2, “Peptide inhibitors of interleukin-23 receptor and their use to treat inflammatory diseases” (priority 2019, dated 2021).

Data set [1] has as its target IL-23R-expressing DB cells (Homo sapiens, UniProt Q5VWK5). Kind of data set: DB cells IL23R pSTAT3 cell assay (pStat3HTRF). The data set is classed as cell-based. To be noted: DB cells stimulated with IL-23 0.5 nM, 30 minutes, phospho-STAT3 in cell lysates; read-out: pStat3 HTRF. The source says: Human ELISA indicates the IL23-IL23R competitive binding assay described below, Rat ELISA indicates the rat IL-23R competitive binding ELISA assay described below, and pStat3HTRF indicates the DB cells IL-23R pSTAT3 cell assay described below. The peptides depicted in Table E1 are cyclized via a disulfide bridge formed between two Pen residues in these peptides. The peptides depicted in Table E2 are cyclized via a thioether bond between the indicated amino acid residues. Table E2 provides an illustrative structure depicting thioether cyclization, which is indicated in the table by the term “cyclo,” with the cyclic region bracketed immediately following the term “cyclo.” For certain peptides, the residue Abu is present where indicated, whereas in other embodiments, e.g., those related to the non-cyclized form, the Abu may be referred to as a hSer(Cl) or homoSer residue. The petpides depicted in Table E3 are cyclized via a disulfide bridge formed between two Pen residues or a thioether bond between Abu and Cys.
IL-23 plays a central role in supporting and maintaining Th17 differentiation in vivo. This process is thought to be mediated primarily through the Signal Transducer and Activator of Transcription 3 (STAT3), with phosphorylation of STAT3 (to yield pSTAT3) leading to upregulation of RORC and pro-inflammatory IL-17. This cell assay examines the levels of pSTAT3 in IL-23R-expressing DB cells when stimulated with IL-23 in the presence of test compounds. Serial dilutions of test peptides and IL-23 (Humanzyme #HZ-1261) at a final concentration of 0.5 nM, were added to each well in a 96 well tissue culture plate (Corning #CLS3894). DB cells (ATCC #CRL-2289), cultured in RPMI-1640 medium (Thermo Scientific #11875093) supplemented with 10% FBS, were added at 5×10E5 cells/well and incubated for 30 minutes at 37° C. in a 5% CO2 humidified incubator. Changes in phospho-STAT3 levels in the cell lysates were detected using the Cisbio HTRF pSTAT3 (Tyr705) Cellular Assay Kit (Cisbio #62AT3PEH), according to manufacturer's Two Plate Assay protocol.

Data set [2] can be described thus: Stability in cynomolgus monkey fecal homogenate. The data set is classed as in vitro ADME. To be noted: 20% fecal homogenate (supernatant), pH 6.8, 20% cynomolgus monkey fecal homogenate, anaerobic, 37° C., read-out: t½: Monkey Feces anaerobic (converted). How it is done: (§1) Centrifuged the homogenate at 2800×g for 15 min. The supernatant is taken out and used for incubations. […] The final test compound concentration was 20 μM.

A short description of data set [3]: Stability in human fecal homogenate. It counts as in vitro ADME. To be noted: 20% fecal homogenate (supernatant), pH 6.8, 20% human fecal homogenate, anaerobic, 37° C., read-out: t½: Human Feces anaerobic (converted). How it is done: as §1
Data set [4] in a line: Stability in rat plasma. To be noted: both sexes, SD rat plasma, EDTA, 37° C., read-out: t½: Rat Plasma EDTA (converted). It counts as in vitro ADME.
A short description of data set [5]: Stability in simulated intestinal fluid (SIF). To be noted: simulated intestinal fluid with pancreatin, pH 6.8, 37° C., matrix is 100 fold dilution of standard SIF concentration; for half-life at 20 μM: read-out: SIF t½ (converted). The data set is classed as in vitro ADME.
Protocol: SIF was prepared by adding 6.8 g of monobasic potassium phosphate and 10.0 g of pancreatin to 1.0 L of water. After dissolution, the pH was adjusted to 6.8 using NaOH. DMSO stocks (2 mM) were first prepared for the test compounds. Aliquots of the DMSO solutions were dosed into 6 individual tubes, each containing 0.5 mL of SIF, which is pre-warmed to 37° C. The final test compound concentration was 20 μM. The vials were kept in a benchtop Thermomixer® for the duration of the experiment. At each timepoint (0, 5, 10, 20, 40, 60, or 360 minutes or 24 hours), 1.0 mL of acetonitrile containing 1% formic acid was added to one vial to terminate the reaction. Samples were stored at 4° C. until the end of the experiment. After the final timepoint is sampled, the tubes were mixed and then centrifuged at 3,000 rpm for 10 minutes. Aliquots of the supernatant were removed, diluted 1:1 into distilled water containing internal standard, and analyzed by LCMS/MS. Percent remaining at each timepoint was calculated based on the peak area response ratio of test to compound to internal standard. Time 0 was set to 100%, and all later timepoints were calculated relative to time 0. Half-lives were calculated by fitting to a first-order exponential decay equation using Graphpad.

Bridge positions count the residues as written; N and C are the ends. Square brackets hold non-standard residues; d marks the D form. Peptide text beside a SMILES is read from it. Trp(7-OMe) = COc1cccc2c(C[C@H](N)C(=O)O)c[nH]c12; His(π-Bom) = N[C@@H](Cc1cncn1COCc1ccccc1)C(=O)O; Trp(7-Me) = Cc1cccc2c(C[C@H](N)C(=O)O)c[nH]c12; 2Nal = N[C@@H](Cc1ccc2ccccc2c1)C(=O)O; AEF = NCCOc1ccc(C[C@H](N)C(=O)O)cc1; Cit = NC(=O)NCCC[C@H](N)C(=O)O; αMeL = CC(C)C[C@](C)(N)C(=O)O; Pen = CC(C)(S)[C@H](N)C(=O)O; αMeK = C[C@](N)(CCCCN)C(=O)O; Aib = CC(C)(N)C(=O)O; βAla = NCCC(=O)O A value given as a limit tells only on which side of the number the result lay.

Chain of IL-23R-expressing DB cells (Q5VWK5 24-629 limits assumed): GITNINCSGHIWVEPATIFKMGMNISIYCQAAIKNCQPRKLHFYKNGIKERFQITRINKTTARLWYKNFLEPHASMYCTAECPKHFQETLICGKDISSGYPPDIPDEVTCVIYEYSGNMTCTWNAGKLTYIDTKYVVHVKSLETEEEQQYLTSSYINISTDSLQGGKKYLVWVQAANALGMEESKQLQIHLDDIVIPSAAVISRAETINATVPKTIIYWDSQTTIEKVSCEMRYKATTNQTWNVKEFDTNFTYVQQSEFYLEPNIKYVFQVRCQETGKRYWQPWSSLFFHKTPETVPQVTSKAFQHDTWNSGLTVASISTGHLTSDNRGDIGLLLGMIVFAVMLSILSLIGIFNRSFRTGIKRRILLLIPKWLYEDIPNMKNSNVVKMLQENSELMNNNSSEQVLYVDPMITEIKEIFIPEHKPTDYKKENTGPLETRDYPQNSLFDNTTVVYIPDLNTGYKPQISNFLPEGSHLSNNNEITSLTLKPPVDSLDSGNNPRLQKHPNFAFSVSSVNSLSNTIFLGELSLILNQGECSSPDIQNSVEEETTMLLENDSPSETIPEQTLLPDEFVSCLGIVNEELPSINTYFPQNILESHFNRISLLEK

On to `CC(=O)NCCCC[C@H](NC(=O)[C@](C)(CCCCN)NC(=O)[C@H](Cc1ccc2ccccc2c1)NC(=O)[C@H](Cc1ccc(OCCN)cc1)NC(=O)[C@H]1NC(=O)[C@H](CCC(N)=O)NC(=O)[C@H](Cc2c[nH]c3c(C)cccc23)NC(=O)[C@H]([C@@H](C)O)NC(=O)[C@H](CC(N)=O)NC(=O)[C@@H](NC(C)=O)C(C)(C)SSC1(C)C)C(=O)N[C@@H](CC(N)=O)C(=O)NCCC(N)=O` [compound 202], for which the IC50 in data set [1] is 1.1 nM. For the same compound, the half-life at 20 μM in data set [2] is 10 h.
Regarding `CC(=O)NCCCC[C@H](NC(=O)[C@](C)(CC(C)C)NC(=O)[C@H](Cc1ccc2ccccc2c1)NC(=O)[C@H](Cc1ccc(OCCN)cc1)NC(=O)[C@H]1NC(=O)[C@H](CCC(N)=O)NC(=O)[C@H](Cc2c[nH]c3c(C)cccc23)NC(=O)[C@H]([C@@H](C)O)NC(=O)[C@H](CC(N)=O)NC(=O)[C@@H](NC(C)=O)C(C)(C)SSC1(C)C)C(=O)N1CCC[C@H]1C(=O)NCCC(N)=O` [compound 211], in data set [1], the IC50 was found to be 178 nM. Besides, the figures for the half-life at 20 μM in data set [3] and in data set [2] (cynomolgus monkey) were 10 h and over 24 h, respectively.
As for `CC(=O)NCCCC[C@H](NC(=O)[C@](C)(CC(C)C)NC(=O)[C@H](Cc1ccc2ccccc2c1)NC(=O)[C@H](Cc1ccc(OCCN)cc1)NC(=O)[C@H]1NC(=O)[C@H](CCC(N)=O)NC(=O)[C@H](Cc2c[nH]c3c(C)cccc23)NC(=O)[C@H]([C@@H](C)O)NC(=O)[C@H](CC(N)=O)NC(=O)[C@@H](NC(C)=O)C(C)(C)SSC1(C)C)C(=O)N[C@@H](C(=O)NCCC(N)=O)[C@H](C)O` [compound 218], in data set [1], the IC50 came out at 11 nM. Besides, the half-life at 20 μM in data set [3] was over 24 h; in data set [2] (cynomolgus monkey), over 24 h; in data set [4] it was 1 h.
For `CC(=O)NCCCC[C@H](NC(=O)[C@](C)(CC(C)C)NC(=O)[C@H](Cc1ccc2ccccc2c1)NC(=O)[C@H](Cc1ccc(OCCN)cc1)NC(=O)[C@H]1NC(=O)[C@H](CCCNC(N)=O)NC(=O)[C@H](Cc2c[nH]c3c(C)cccc23)NC(=O)[C@H]([C@@H](C)O)NC(=O)[C@H](CC(N)=O)NC(=O)[C@@H](NC(C)=O)C(C)(C)SSC1(C)C)C(=O)N[C@@H](CC(N)=O)C(=O)NCCC(N)=O` [compound 227] (Ac-[Pen]NT[Trp(7-Me)][Cit][Pen][AEF][2Nal][αMeL]K(Ac)N[βAla]-NH2; disulfide 1-6), the IC50 in data set [1] came out at 0.702 nM. The half-life at 20 μM in data set [3] and in data set [2] (cynomolgus monkey) was over 24 h in each case.
Take `CC(=O)NCCCC[C@H](NC(=O)[C@](C)(CCCCN)NC(=O)[C@H](Cc1ccc2ccccc2c1)NC(=O)[C@H](Cc1ccc(OCCN)cc1)NC(=O)[C@H]1NC(=O)[C@H](CCC(N)=O)NC(=O)[C@H](Cc2c[nH]c3c(C)cccc23)NC(=O)[C@H]([C@@H](C)O)NC(=O)C(C)(C)NC(=O)[C@@H](NC(C)=O)C(C)(C)SSC1(C)C)C(=O)N[C@@H](CC(N)=O)C(=O)NCCC(N)=O` [compound 240] (Ac-[Pen][Aib]T[Trp(7-Me)]Q[Pen][AEF][2Nal][αMeK]K(Ac)N[βAla]-NH2; disulfide 1-6): the IC50 in data set [1] came to 17.7 nM. In addition, the half-life at 20 μM is 7 h in data set [5], 4 h in data set [3], 3 h in data set [2] (cynomolgus monkey) and 8 h in data set [4].
`CC(=O)NCCCC[C@@H]1NC(=O)[C@H](Cc2c[nH]c3c(C)cccc23)NC(=O)[C@H]([C@@H](C)O)NC(=O)[C@H](CC(N)=O)NC(=O)[C@@H](NC(C)=O)C(C)(C)SSC(C)(C)[C@@H](C(=O)N[C@@H](Cc2ccc(OCCN)cc2)C(=O)N[C@@H](Cc2ccc3ccccc3c2)C(=O)N[C@@](C)(CCCCN)C(=O)N[C@@H](CCCCNC(C)=O)C(=O)N[C@@H](CC(N)=O)C(=O)N[C@H](Cc2ccccc2)C(N)=O)NC1=O` [compound 258]: the IC50 in data set [1] was determined as 0.92 nM. Further, the half-life at 20 μM was 14 h in data set [5], over 24 h in data set [3], over 24 h in data set [2] (cynomolgus monkey) and over 24 h in data set [4].
As for `CC(=O)NCCCC[C@H](NC(=O)[C@](C)(CCCCN)NC(=O)[C@H](Cc1ccc2ccccc2c1)NC(=O)[C@H](Cc1ccc(OCCN)cc1)NC(=O)[C@H]1NC(=O)[C@H](CCC(N)=O)NC(=O)[C@H](Cc2c[nH]c3c(C)cccc23)NC(=O)[C@H]([C@@H](C)O)NC(=O)[C@H](CC(N)=O)NC(=O)[C@@H](NC(C)=O)C(C)(C)SSC1(C)C)C(=O)N[C@@H](CC(N)=O)C(=O)NCCC(N)=O` [compound 267], the IC50 in data set [1] is 0.506 nM. Further, the half-life at 20 μM in data set [3] and in data set [4] was over 24 h throughout.
For the compound `CC(=O)NCCCC[C@H](NC(=O)C1(NC(=O)[C@H](Cc2ccc3ccccc3c2)NC(=O)[C@H](Cc2ccc(OCCN)cc2)NC(=O)[C@H]2NC(=O)[C@H](CCC(N)=O)NC(=O)[C@H](Cc3c[nH]c4c(C)cccc34)NC(=O)[C@H]([C@@H](C)O)NC(=O)[C@H](CC(N)=O)NC(=O)[C@@H](NC(C)=O)C(C)(C)SSC2(C)C)CCNCC1)C(=O)N[C@@H](CC(N)=O)C(=O)NCCC(N)=O` [compound 275], the IC50 in data set [1] stood at 2.17 nM. Also, the half-life at 20 μM in data set [3] is over 24 h; in data set [2] (cynomolgus monkey), 8 h; in data set [4], over 24 h.
`CC(=O)N[C@@H]1C(=O)N[C@@H](CC(N)=O)C(=O)N[C@@H]([C@@H](C)O)C(=O)N[C@@H](Cc2c[nH]c3c(C)cccc23)C(=O)N[C@@H](CCCNC(N)=O)C(=O)N[C@H](C(=O)N[C@@H](Cc2ccc(OCCN)cc2)C(=O)N[C@@H](Cc2ccc3ccccc3c2)C(=O)N[C@@](C)(CCCCN)C(=O)N[C@@H](CCCNC(N)=O)C(=O)NCCC(=O)NCCC(N)=O)C(C)(C)SSC1(C)C` [compound 281] (Ac-[Pen]NT[Trp(7-Me)][Cit][Pen][AEF][2Nal][αMeK][Cit][βAla][βAla]-NH2; disulfide 1-6): the IC50 in data set [1] worked out at 17.7 nM. Besides, the half-life at 20 μM in data set [5] was 14 h; in data set [3], over 24 h; in data set [2] (cynomolgus monkey) it was over 24 h; in data set [4] it was over 24 h.
`CC(=O)NCCCC[C@@H]1NC(=O)[C@H](Cc2c[nH]c3c(C)cccc23)NC(=O)[C@H]([C@@H](C)O)NC(=O)[C@H](CC(N)=O)NC(=O)[C@@H](NC(C)=O)C(C)(C)SSC(C)(C)[C@@H](C(=O)N[C@@H](Cc2cncn2COCc2ccccc2)C(=O)N[C@@H](Cc2ccc3ccccc3c2)C(=O)N[C@@](C)(CCCCN)C(=O)N[C@@H](CCCCNC(C)=O)C(=O)N[C@@H](CC(N)=O)C(=O)N[C@H](CC(C)C)C(N)=O)NC1=O` [compound 291] (Ac-[Pen]NT[Trp(7-Me)]K(Ac)[Pen][His(π-Bom)][2Nal][αMeK]K(Ac)N[dL]-NH2; disulfide 1-6): the IC50 in data set [1] was over 1000 nM. Also, the half-life at 20 μM in data set [3], in data set [2] (cynomolgus monkey) and in data set [4] was over 24 h in each case.
For `COc1cccc2c(C[C@@H]3NC(=O)[C@H]([C@@H](C)O)NC(=O)[C@H](CC(N)=O)NC(=O)[C@@H](NC(C)=O)C(C)(C)SSC(C)(C)[C@@H](C(=O)N[C@@H](Cc4ccc(OCCN)cc4)C(=O)N[C@@H](Cc4ccc5ccccc5c4)C(=O)N[C@@](C)(CCCCN)C(=O)N[C@@H](CCCCNC(C)=O)C(=O)N[C@@H](CC(N)=O)C(=O)N[C@H](CCCCN)C(N)=O)NC(=O)[C@H](CCCNC(N)=O)NC3=O)c[nH]c12` [compound 300] (Ac-[Pen]NT[Trp(7-OMe)][Cit][Pen][AEF][2Nal][αMeK]K(Ac)N[dK]-NH2; disulfide 1-6), in data set [1], the IC50 was over 1000 nM. For the same compound, the “SIF t½” value in data set [5] (20 μM) was 24 h. The half-life at 20 μM in data set [3], in data set [2] and in data set [4] was over 24 h throughout.
